Tests used:
[1] = target: T1, Fatty acid-binding protein, adipocyte (Homo sapiens, UniProt P15090); test: Binding affinity to His6-tagged FABP4 (unknown origin) expressed in Escherichia coli BL21(DE3) cells assessed as change in melting temperature at 50 uM after 30 mins by SYPRO orange dye based thermal stability shift assay
Target sequence in this assay (P15090 2-132 limits assumed): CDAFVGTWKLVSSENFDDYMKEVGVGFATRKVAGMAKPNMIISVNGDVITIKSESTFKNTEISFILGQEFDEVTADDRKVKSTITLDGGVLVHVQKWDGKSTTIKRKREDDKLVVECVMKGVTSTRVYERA

[2] = target: T1, Fatty acid-binding protein, adipocyte; test: Displacement of 1,8-ANS from His6-tagged FABP4 (unknown origin) expressed in Escherichia coli BL21(DE3) cells at 25 uM by fluorescence assay relative to control
Target sequence in this assay (P15090 2-132 limits assumed): as above

[3] = target: T1, Fatty acid-binding protein, adipocyte; test: Displacement of 1,8-ANS from His6-tagged FABP4 (unknown origin) expressed in Escherichia coli BL21(DE3) cells by fluorescence assay; details: read-out: Ki(app)
Target sequence in this assay (P15090 whole entry): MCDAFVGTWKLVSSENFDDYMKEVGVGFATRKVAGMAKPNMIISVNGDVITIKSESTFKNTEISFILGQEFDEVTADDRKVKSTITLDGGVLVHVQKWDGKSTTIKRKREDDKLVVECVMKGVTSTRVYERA

[4] = target: T2, Fatty acid-binding protein, adipocyte (Mus musculus) (UniProt P04117); test: Inhibition of FABP4 in mouse RAW264.7 cells assessed as inhibition of LPS-induced TNFalpha expression after 24 hrs by qPCR method; assay type: cell-based
T2 sequence (whole entry): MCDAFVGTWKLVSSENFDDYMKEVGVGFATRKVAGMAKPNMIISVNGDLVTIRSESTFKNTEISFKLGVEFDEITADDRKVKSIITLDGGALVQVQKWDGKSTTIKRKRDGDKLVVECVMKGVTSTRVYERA

[5] = target: T2, Fatty acid-binding protein, adipocyte (Mus musculus); test: Inhibition of FABP4 in mouse RAW264.7 cells assessed as inhibition of LPS-induced IL-6 expression after 24 hrs by qPCR method; assay type: cell-based
[6] = target: T2, Fatty acid-binding protein, adipocyte (Mus musculus); test: Inhibition of FABP4 in mouse RAW264.7 cells assessed as inhibition of LPS-induced TNFalpha production after 24 hrs by ELISA; assay type: cell-based
[7] = species on record: Homo sapiens; test: Displacement of 1,8-ANS from His6-tagged FABP4 (unknown origin) R106A mutant expressed in Escherichia coli BL21(DE3) cells at 25 uM by fluorescence assay relative to control
[8] = species on record: Homo sapiens; test: Displacement of 1,8-ANS from His6-tagged FABP4 (unknown origin) R126A mutant expressed in Escherichia coli BL21(DE3) cells at 25 uM by fluorescence assay relative to control

SMILES | ΔTm [1] [°C] | inhibition [2] [%] | also measured
O=C(O)COc1ccc(Br)cc1/C=C1\S/C(=N\c2ccc(Cl)cc2)NC1=O | -0.6 | – | –
COc1ccccc1-c1cc(C(F)(F)F)nc(S(=O)(=O)CCCC(=O)O)n1 | -9.1 | – | –
Cc1nc(=O)c(-c2ccccc2)c(C)n1CCCCCC(=O)O | 0 | -3.2 | –
CCc1c(-c2ccccc2)c(-c2ccccc2)nn1-c1ccccc1-c1cccc(OCC(=O)O)c1 | 10.6 | – | inhibition [4]: Dose-dependent effect; inhibition [5]: Dose-dependent effect; inhibition [6]: Dose-dependent effect
O=C(O)CCC(=O)Nc1ccccc1C(=O)N1CCCCCC1 | -0.1 | 3.4 | –
O=C(O)CC(Sc1nc2sc3c(c2c(=O)[nH]1)CCCC3)C(=O)O (stereo not given) | 0.1 | – | –
O=C(CSc1ncccc1C(=O)O)c1ccc(O)c(O)c1 | -0.6 | -0.2 | –
O=C(O)C1C2CC=CC2c2c3c(cc4ccccc24)C2C=CCC2CN31 (stereo not given) | 7.5 | – | –
CC(Sc1nc(-c2ccccc2)c(-c2ccccc2)[nH]1)C(=O)O (stereo not given) | 3.1 | – | –
O=C(O)CC/C(=N/NC(=O)c1c[nH]c2ccccc12)c1ccccc1 | -0.8 | -0.8 | –
COc1cccc(-c2[nH]c3ccccc3c2C2c3ccccc3C(=O)N2CCC(=O)O)c1 (stereo not given) | 1.1 | 6.3 | –
COc1ccccc1N1CCN(C(=O)c2ccccc2NC(=O)C2CCCCC2C(=O)O)CC1 (stereo not given) | 0.1 | -5 | –
Cc1ccc(-n2c(SCC(=O)Nc3c(C)cccc3C)nc(O)cc2=O)cc1 | 0 | -3 | –
COc1ccc(C2C(C(=O)c3ccc(C)cc3)=C(O)C(=O)N2CCCC(=O)O)cc1OC (stereo not given) | 1 | 16.6 | –
O=C(O)CCSc1nc2ccccc2n1Cc1ccccc1 | 2.8 | 27.9 | –
COc1ccc(-c2ccc(C#N)c(SCC(=O)NCC(=O)O)n2)cc1 | -0.1 | – | –
Cc1ccc(C(C[N+](=O)[O-])c2c(-c3ccccc3C)n[nH]c2O)cc1 (stereo not given) | -3.7 | 5.8 | –

SMILES | ΔTm [1] [°C] | inhibition [2] [%] | also measured
O=C(O)C1C2CC(Sc3ccccc3[N+](=O)[O-])C(Cl)C2c2cccc3c2N1CC1CC=CC31 (stereo not given) | 3.5 | 60.2 | Ki [3]: 3.1 µM
Cc1cc(=O)n2c3c(cc(S(=O)(=O)NCc4ccc(C(=O)O)cc4)cc13)CC2 | 0.8 | – | –
COc1ccc(S(=O)(=O)Nc2ccccc2C(=O)O)c2ccccc12 | 1.2 | 20.3 | –
O=C(O)CCC(=O)Nc1sc2c(c1C(=O)Nc1cccc3ccccc13)CCCCC2 | 0.2 | 0.4 | –
Cc1[nH]nc2c1C1(C(=O)N(C(C)C(=O)O)c3ccccc31)C(C#N)=C(N)O2 (stereo not given) | 0.1 | 6 | –
O=C(O)c1ccccc1C(=O)N(Cc1ccccc1)Cc1ccccc1 | 1 | 4.9 | –
CCCCCCCC/C=C\CCCCCCCC(=O)O | 3.3 | 82.1 | inhibition [7]: 69.4%; inhibition [8]: 48.8%
O=C(O)c1cccc2c1NC(c1ccccc1[N+](=O)[O-])C1CC(Sc3ccccc3[N+](=O)[O-])C(Cl)C21 (stereo not given) | -0.2 | 41.5 | Ki [3]: 5.4 µM
CC(=O)NC(Cc1ccc(O)cc1)C(=O)O (stereo not given) | -0.1 | -3.6 | –
O=C(O)C(Cc1ccc(O)cc1)N1C(=O)c2c(Cl)c(Cl)c(Cl)c(Cl)c2C1=O (stereo not given) | 0.5 | 6 | –
CCCCCC(=O)N(CN1C(=O)c2ccccc2C1=O)c1cccc(C(=O)O)c1 | -0.2 | -1.9 | –
Cc1ccc(S(=O)(=O)NC(CC(=O)O)c2ccccc2)c(C)c1 (stereo not given) | 0.2 | -0.3 | –
Cc1cc2c3c(c1)C1C=CCC1C(C(=O)O)N3CC1CC=CC21 (stereo not given) | 6.2 | – | inhibition [4]: Dose-dependent effect; Ki [3]: 0.38 µM; inhibition [5]: Dose-dependent effect; inhibition [6]: Dose-dependent effect
Cc1cc(C)c2c3c1C1C=CCC1CN3C(C(=O)O)C1CC=CC21 (stereo not given) | 5.8 | – | Ki [3]: 0.61 µM
Cc1ccc(C(=O)C2=C(O)C(=O)N(CCCC(=O)O)C2c2ccccc2F)cc1 (stereo not given) | 0 | 17.1 | –
CCCCC/C=C\C/C=C\CCCCCCCC(=O)O | 1.1 | – | –
Cc1oc2ccc(NS(=O)(=O)c3ccccc3)cc2c1C(=O)O | 0.2 | 9.5 | –

More lines, main results first:

ΔTm [1] [°C] | inhibition [2] [%] | SMILES | also measured
-1.8 | 63.2 | CCOc1cc(/C=C2/SC(=S)N(CCC(=O)O)C2=O)ccc1O | Ki [3]: 2.5 µM
-9 | 36.8 | Cc1ccc(/N=C2/NC(=O)/C(=C/c3cccn3-c3cccc(C(=O)O)c3)S2)cc1C | Ki [3]: 3.6 µM
2 | 13 | CCCCCCCn1c(SCC(=O)O)nc2c1c(=O)[nH]c(=O)n2C | –
0.2 | 18.2 | CCOC(=O)c1cnc2c(ccc3ccccc32)c1Nc1cccc(C(=O)O)c1 | –
2.8 | 30.2 | Cc1oc2c(cc(NS(=O)(=O)c3ccc(Cl)cc3)c3ccccc32)c1C(=O)O | –
-0.3 | 25.8 | CN1C(=O)/C(=N/c2cccc(C(=O)O)c2)S/C1=C\c1cccs1 | –
3.9 | 27.7 | O=C(O)C1CCCCC1C(=O)Nc1ccccc1-c1ccccc1 (stereo not given) | –
0.1 | 7.2 | O=C(O)c1ccc(S(=O)(=O)Nc2ccc(O)c(Sc3nc4ccccc4s3)c2)cc1 | –
1.2 | – | COc1ccc(Cc2c(C)[nH]c3ccc(C(=O)O)cc23)cc1 | –
0.3 | 0.9 | O=c1cc(O)c2c(=O)n(N(c3ccccc3)c3ccccc3)c3c(c2o1)CCCC3 | –
0.3 | 39.5 | O=C(Nc1cc(Cl)ccc1Cl)/C(=N\Nc1ccccc1C(=O)O)C(=O)c1ccccc1 | Ki [3]: 10.3 µM
0.1 | 31.4 | CCCOc1cc(S(=O)(=O)Nc2ccc(C(=O)O)cc2)ccc1Cl | Ki [3]: 4.3 µM
-2.8 | 70 | O=C(O)CSc1cc(NS(=O)(=O)c2ccc(Cl)cc2)c2ccccc2c1O | Ki [3]: 2.3 µM
-0.2 | – | CCCN1C2=C(C(=O)CC(C)(C)C2)C(c2cc(Cl)ccc2OCC(=O)O)C2=C1CC(C)(C)CC2=O | –
7.9 | – | O=C(O)C1C2CC=CC2c2cc(Cl)cc3c2N1CC1CC=CC31 (stereo not given) | Ki [3]: 0.69 µM
-2.6 | -2.5 | Cc1ccc(C(=O)/C(=C\Nc2cc(Cl)ccc2C(=O)O)c2nnnn2-c2ccc(C)cc2)cc1 | –
0.1 | 0.5 | Cc1ccc(C)c(NC(=O)C2CCC(C)(C(=O)O)C2(C)C)c1 (stereo not given) | –
-0.1 | 1 | C=C1C(N(CCc2ccc(OC)cc2)C(=O)CCC(=O)O)CC(=O)N1c1ccccc1 (stereo not given) | –
0 | 0.5 | CN(CC(=O)O)c1ncc(-c2nnnn2-c2ccccc2)c(-c2ccccc2Cl)n1 | –
0.5 | 2.1 | CCc1ccccc1NC(=O)C(OC(=O)c1ccccc1)C(OC(=O)c1ccccc1)C(=O)O (stereo not given) | –
0.1 | 18.5 | COc1ccc(CN(C(=O)COc2cc(C)ccc2C(C)C)c2ccccc2C(=O)O)cc1 | –
-2.4 | – | O=C(O)c1cccc(-c2ccc(CNC(Cc3c[nH]c4ccccc34)C(=O)O)o2)c1 (stereo not given) | –

Reference: ChEMBL document CHEMBL3826919, “The discovery of novel and selective fatty acid binding protein 4 inhibitors by virtual screening and biological evaluation” (Bioorg Med Chem, 2016)
